Data published in patent publication US20200352906A1, “Heterobicyclic Carboxylic Acids for Treating Cancer or Inflammatory Diseases” (Shenzhen Ionova Life Science Co., Ltd., priority 2018, published 2020).

Key:
[1] = test system: arthritis mice (AIA model); assay: In vivo anti-inflammatory activity, AIA arthritis model
Description: Male Lewis Rates of 8-10 weeks old were fed with fixed amount of foods and free water at 20±2° C., under light in the 12-hour light and 12-hour darkness cycle and with the humidity of 45-70%. All mice were provided adjusted living for three days before they were used in test. 56 of such mice were divided into 7 groups with 8 mice in each group. One group was a control group and received only 1% CMCNa solution; one group was a model group and also received only 1% CMCNa solution; one group was a positive group and received Celecoxib at 18 mg/kg, and the other four groups received solutions of tested compound at the 1 mg/kg, 3 mg/kg, 10 mg/kg and […] dosages respectively.
1% CMC-Na was prepared with 1.00277 g of CMC-Na in 100 mL distilled water, heated with a 60° C. water bath until CMC-Na fully dissolved.
18 mg/kg Celecoxib capsule: 18.09 mg Celecoxib was placed into a grinder into which 10 mL 1% CMC-Na solution was added slowly. The mixture was ground until Celecoxib fully dissolved.
10 mg/kg C-003 solution: 10.08 mg of a tested compound (4-(1-{[2-Methyl-4-(4-trifluoromethyl-benzyl)-4H-thieno[3,2-b]pyrrole-3-carbonyl]-amino}-cyclopropyl)-benzoic acid diethanolamino salt, which is referred to hereinafter as INV-1120 diethanolamino salt) was added into a grinder, into which 10 mL 1% CMC-Na solution was slowly added until INV-1120 diethanolamino salt fully dissolved.
30 mg/kg INV-1120 solution: 30.3 mg of INV-1120 diethanolamino salt was added into a grinder, into which 10 mL 1% CMC-Na solution was slowly added until INV-1120 diethanolamino salt fully dissolved.
1 mg/kg INV-1120 was prepared by mixing 1.0 mL of 10 mg/kg INV-1120 diethanolamino salt solution with 9 mL 1% CMC-Na.
3 mg/kg INV-1120 was prepared by mixing 1.0 mL of 30 mg/kg INV-1120 diethanolamino salt solution with 9 mL 1% CMC-Na.
After the mice were subject to Anesthesia, they were cleaned with medical alcohol at their right feet. The mice in the control group were administered with 50 uL PBS, and the mice of the other groups were treated at the right feet with 50 uL CDA solution. One day before the establishment of the model, the basic size (volume) of each mice was measured, the date of the model establishment was D1, test compound was administered at 1 mL/100 g to the stomach starting on D13 daily for 12 days (ending on D24).
The mice were examined and photos were taken every three days for their water intakes, food intakes, and weights; every four days for their abilities to withstand weight at their rear feet; every three days for the swelling volumes and swelling thickness and temperatures of their feet, as well as their behaviors.

[2] = test system: MC38 murine colon adenocarcinoma; assay: In vivo pharmacodynamic test on subcutaneous murine colon adenocarcinoma (MC38); design: species or system mice; details: 60 mg/kg/day, after 15 days of treatment, p<0.0001 vs control
Description: All animal studies were reviewed and approved by the Animal Care and Use Committee of Beth Israel Deaconess Medical Center, Boston, Mass. Animals were housed at a maximum of 5 animals per cage in a pathogen-free facility with unlimited access to sterile water and chow. Daily welfare evaluations and animal sacrifices were carried out according to the Committee guidelines. MC38 mouse colon adenocarcinoma cells (Kerafast, Boston, Mass., USA) were cultured in DMEM that was supplemented with 10% FBS, 1% GPS, 0.1 mM nonessential amino acids (MilliporeSigma), 1 mM sodium pyruvate (MilliporeSigma), 10 mM Hepes (MilliporeSigma), and […] gentamycin sulfate (MilliporeSigma). Adherent cells were trypsinized, pelleted, counted by hemocytometer, and injected into mice at 1×10^6 cells/mL in PBS.
(§1) Cells were injected subcutaneously into the mid-dorsum of 6-week-old male C57BL/6 mice (The Jackson Laboratory, Bar Harbor, Me.) at 100 μL/mouse. Mice were systemically treated with Compound 1 (INV-1120, 60 mg/kg/day), anti-PD1 (200 ug Q 3 days), INV-1120 (60 mg/kg/day) and anti-PD1 (200 ug Q 3 days), or vehicle (0.45% methylcellulose) in a total volume of 100 μL via orally by gavage. Treatment initiated on day 10 post-tumor cell injection, when tumors reached approximately 2004 mm^3 to 224 mm^3. Tumor size was measured by caliper (width^2×length×0.52=mm^3).

Lewis lung carcinoma = assay: In vivo pharmacodynamic test on growth of LLC (Lewis Lung Cancer); design: species or system mice; details: 90 mg/kg/day, after 9 days of treatment, p<0.01 vs control
Description: as §1, with “LLC (1×10^6 cells)” for “Cells”, “INV-1120 (90” for “Compound 1 (INV-1120, 60”, “(90” for “(60”, “initiated” for “initiated on day 10 post-tumor cell injection,”, “249” for “2004”, “297” for “224”

B16F10 melanoma = assay: In vivo pharmacodynamic test on growth of B16F10 melanoma; design: species or system mice; details: 90 mg/kg/day, after 8 days of treatment, p<0.001 vs control
Description: as §1, with “B16F10 (1×10^6 cells)” for “Cells”, “90” for “60”, “(90” for “(60”, “100” for “2004”, “116” for “224”

[3] = test system: colon cancer CT26 transplanted tumor; assay: In vivo pharmacodynamic test on growth of colon cancer CT26 transplanted tumor in mice
Description: CT26 tumor cell line was maintained in vitro as monolayer culture in RPMI-1640 Media supplemented with 10% heat inactivated fetal calf serum at 37° C. in an atmosphere of 5% CO2 in air. The tumor cells were routinely sub-cultured twice weekly by trypsin-EDTA treatment, not to exceed 4-5 passages. The cells growing in an exponential growth phase were harvested and counted for tumor inoculation.
Each mouse was inoculated subcutaneously on the right lower flank with the single cell suspension of 95% viable tumor cells (3×10^5) in 0.1 mL of serum-free RPMI 1640 Media for tumor development. Each mouse was administered with a test compound of this invention when mean tumor size reached approximately 100 mm^3. Each group consisted of 6 mice. The mice were randomized to different treatment groups as shown in the table under ‘Groups and Treatment’. The mice were lightly anesthetized before implantation. Care was taken to ensure subcutaneous delivery of cells by lifting up the fold of skin with sterilized forceps and injecting cells. Any tumors that completely or partially grew intradermally (ID) or intramuscularly (IM) were not used.
CT26 cells were maintained in RPMI 1640 medium supplemented with 10% FBS at 37° C. and 5% CO2 atmosphere. Cell detachment was obtained using standard trypsinization methods, quantification of cell numbers and viability information using the NC-200 automated cell counter. Compound 1 (INV-1121) was thoroughly suspended in 0.5% methyl cellulose (MC) by sonication at 4° C. for 15 min before oral administration (p.o.) to animals. BALB/c mice were injected subcutaneously (s.c.) with live 1×10^5 […]. Mice developed tumors of approximately 36 mm^3 in 5 days. CT26 tumor-bearing mice were randomized and mapped into 5 groups of 10 mice each: group A received vehicle (0.5% MC); group B received 0.1 mg/kg of Compound 1; group C received 1 mg/kg of Compound 1, group D received 25 mg/kg of Compound 1; and group E received 150 mg/kg of Compound 1. All treatments were give Compound 1 p.o. daily for 21 consecutive days. Tumor volumes and body weights were measured twice weekly. Study was terminated 27 days after tumor cell injection. Tumor volumes were expressed as mean: t SEM. Tumor volume differences among treated mouse groups on day 27 were analyzed by the one-way ANOVA followed by Tukey's test. P<0.05 values were considered significant.
For routine monitoring, all study animals were monitored not only tumor growth but also behavior such as mobility, food and water consumption (by cage side checking only), body weight (BW), eye/hair matting and any other abnormal effect. All mortality and/or abnormal clinical signs were recorded.
Body weights of all animals are measured twice/week throughout the study. The measurement dates will specify as study design. Body weight change, expressed in %, was calculated using the following formula:
BW change (%)=((BWDay X−BWDay 0)/BWDay 0)×100
The measurement of tumor size was conducted twice/week with a caliper and the tumor volume (mm3) will be estimated using the formula: TV=a×b 2/2, where “a” and “b” is long and short diameters of a tumor, respectively. The TVs were used for calculation of the tumor growth inhibition (TGI, an indicator of antitumor effectiveness) value using the formula: TGI=(1−T/C)×100%, where “T” and “C” is the mean relative volumes (% tumor growth) of the tumors in the treated and the control groups, respectively. The experiment was terminated when the mean tumor volume exceeded 2000 mm3 or severe body weight loss.

[4] = Example 6, studies as described in Example 5, compared with Example 5
[5] = vs animals without administration of tested compounds

## Cc1sc2ccn(Cc3ccc(C(F)(F)F)cc3)c2c1C(=O)NC1(c2ccc(C(=O)O)cc2)CC1.NC(CO)(CO)CO [4-(1-{[2-Methyl-4-(4-trifluoromethyl-benzyl)-4H-thieno[3,2-b]pyrrole-3-carbonyl]-amino}-cyclopropyl)-benzoic acid tris(hydroxymethyl)aminomethane salt]
[1]; [4]
  balancing or coordination ability after treatment: better balancing or coordination ability
  reduction of swelling on the arthritis feet: even more effective reduction of swelling

## Cc1sc2ccn(Cc3ccc(C(F)(F)F)cc3)c2c1C(=O)NC1(c2ccc(C(=O)O)cc2)CC1.OCCNCCO [INV-1120 diethanolamino salt, 4-(1-{[2-Methyl-4-(4-trifluoromethyl-benzyl)-4H-thieno[3,2-b]pyrrole-3-carbonyl]-amino}-cyclopropyl)-benzoic acid diethanolamino salt]
[1]; 1, 3, 10 and 40 mg/kg to the stomach daily D13-D24, FIG. 5
  temperatures of the feet: had effect in lowering the temperatures
[1]; 1, 3, 10 and 40 mg/kg to the stomach daily D13-D24, FIG. 6
  swelling (volumes and thickness) of the feet: had effect in lowering the temperatures and swelling (both volumes and thickness)
[1]; mouse, in vivo
  behavior patterns (e.g., balancing capability): improved behavior patterns
[1]; [5]
  ability to withstand weight (rear feet): greater weight gains and ability to withstand weight
  weight gains: greater weight gains

## Cc1sc2ccn(Cc3ccc(C(F)(F)F)cc3)c2c1C(=O)NC1(c2ccc(C(=O)O)cc2)CC1 [INV-1120, 4-(1-{[2-Methyl-4-(4-trifluoromethyl-benzyl)-4H-thieno[3,2-b]pyrrole-3-carbonyl]-amino}-cyclopropyl)-benzoic acid]
[2]
  inhibition of primary tumor growth vs control: inhibited primary MC38 murine colon adenocarcinoma
Lewis lung carcinoma
  inhibition of primary Lewis lung carcinoma growth vs control: inhibited primary Lewis lung carcinoma growth
B16F10 melanoma
  inhibition of primary melanoma growth vs control: inhibited primary 16F10 melanoma growth

## O=C(O)c1ccc(C2(NC(=O)c3csc4ccn(Cc5ccc(C(F)(F)F)cc5)c34)CC2)cc1 [INV-1121]
[3]; 0.1 mg/kg p.o. daily
  tumor growth inhibition: some inhibition was observed, but without statistical significance
[3]; 1.0 mg/kg p.o. daily
  tumor growth inhibition: some inhibition was observed, but without statistical significance
[3]; 25 mg/kg p.o. daily
  anti-tumor activity: significant and comparable anti-tumor activity
[3]; 150 Mg/kg p.o. daily
  anti-tumor activity: significant and comparable anti-tumor activity
[3]; all doses tested, 0.1-150 mg/kg p.o. daily
  gross toxicity judged from animal body weight and overall animal behavior: None of the doses tested showed gross toxicity
[3]; daily oral administration, range 0.1 mg/kg-150 mg/kg, 21 consecutive days, FIG. 1
  tumor growth inhibition, dose dependence: inhibited the tumor growth in a dose-dependent manner
